# Measurements taken from patent EP2999467B1, “USE OF A COMBINATION OF TWO COMPOUNDS FOR THE TREATMENT AND/OR PREVENTION OF BONE DISORDERS” (Institut National de la Recherche Agronomique (INRA), priority 2013, dated 2014).
# Test system: RAW264.7
# Test: TRAP staining: RANKL-induced osteoclast differentiation, count of multinucleated TRAP+ cells
# Format: cell-based
# Text: Les préostéoblastes primaires ont été isolés à partir de la calotte crânienne de rats Wistar nouveaux-nés par digestion enzymatique comme précédemment décrit [Declercq, H., Van den Vreken, N., De Maeyer, E., Verbeeck, R., Schacht, E., De Ridder, L., and Cornelissen, M. (2004). Isolation, proliferation and differentiation of osteoblastic cells to study cell/biomaterial interactions: comparison of different isolation techniques and source. Biomaterials 25, 757-68.]. Les précurseurs d'ostéoclastes RAW264.7 ont été obtenus auprès de l'ATCC (Manassas, VA, USA). Les préostéoblastes et les RAW264.7 ont été cultivés dans du milieu α-MEM (Invitrogen, Carlsbad, CA, USA) supplémenté avec 10% de SVF décomplémenté et de 100 unités/ml de pénicilline-streptomycine.
# Pour la coloration TRAP, 60.000 cellules RAW264.7 ont été ensemencées dans des puits de plaques 12 puits pendant 12 heures puis traitées avec du DMSO/éthanol comme témoin ou de la fisétine (5 µM dans le DMSO) ou du DHA (50µM dans l'éthanol) ou la combinaison des deux (Fisétine 5 µM et DHA 50 µM) pendant 3 heures. Les cellules ont ensuite été induites à se différencier en présence de RANKL (50 ng/ml) avec du DMSO/éthanol ou de la fisétine (5 µM) ou du DHA (50 µM) ou la combinaison des deux (Fisétine 5 µM et DHA 50 µM) durant 4 jours avec un changement de milieux après 2 jours. De la BSA délipidée et sans endotoxines a été utilisée pour solubiliser le DHA avec un rapport 1/5 (BSA/DHA).
# La coloration TRAP a été réalisée en utilisant le kit « leukocyte acid phosphatase » (Sigma-Aldrich) selon les recommandations du fournisseur après fixation des cellules. Les cellules TRAP+ multinucléées ont ensuite été comptées.
smiles,measurement,setting,value
"CC/C=C\C/C=C\C/C=C\C/C=C\C/C=C\C/C=C\CCC(=O)O [DHA, acide docosahexaénoïque]",inhibition at 50 µM,"Mus musculus, RAW264.7, 96 h, DHA 50µM, RANKL 50 ng/ml, 4 days, vs RANKL condition, read-out: inhibition de l'induction par RANKL de la formation de cellules multinucléées TRAP+ (ostéoclastes)",23%
same,ostéoclastes/cm^2,"condition RANKL+DHA (50µM), RANKL alone 735+/-251",564+/-259 ostéoclastes/cm^2
